Reference: PMC3663987 (Parasitology Research, 2013)

Target: P-glycoprotein (Pgp, ABCB1) (Homo sapiens, UniProt P08183)
Assay: Pgp-Glo ATPase stimulation assay, recombinant human Pgp membranes
Type: biochemical

Chain of P-glycoprotein (Pgp, ABCB1) (P08183 whole entry): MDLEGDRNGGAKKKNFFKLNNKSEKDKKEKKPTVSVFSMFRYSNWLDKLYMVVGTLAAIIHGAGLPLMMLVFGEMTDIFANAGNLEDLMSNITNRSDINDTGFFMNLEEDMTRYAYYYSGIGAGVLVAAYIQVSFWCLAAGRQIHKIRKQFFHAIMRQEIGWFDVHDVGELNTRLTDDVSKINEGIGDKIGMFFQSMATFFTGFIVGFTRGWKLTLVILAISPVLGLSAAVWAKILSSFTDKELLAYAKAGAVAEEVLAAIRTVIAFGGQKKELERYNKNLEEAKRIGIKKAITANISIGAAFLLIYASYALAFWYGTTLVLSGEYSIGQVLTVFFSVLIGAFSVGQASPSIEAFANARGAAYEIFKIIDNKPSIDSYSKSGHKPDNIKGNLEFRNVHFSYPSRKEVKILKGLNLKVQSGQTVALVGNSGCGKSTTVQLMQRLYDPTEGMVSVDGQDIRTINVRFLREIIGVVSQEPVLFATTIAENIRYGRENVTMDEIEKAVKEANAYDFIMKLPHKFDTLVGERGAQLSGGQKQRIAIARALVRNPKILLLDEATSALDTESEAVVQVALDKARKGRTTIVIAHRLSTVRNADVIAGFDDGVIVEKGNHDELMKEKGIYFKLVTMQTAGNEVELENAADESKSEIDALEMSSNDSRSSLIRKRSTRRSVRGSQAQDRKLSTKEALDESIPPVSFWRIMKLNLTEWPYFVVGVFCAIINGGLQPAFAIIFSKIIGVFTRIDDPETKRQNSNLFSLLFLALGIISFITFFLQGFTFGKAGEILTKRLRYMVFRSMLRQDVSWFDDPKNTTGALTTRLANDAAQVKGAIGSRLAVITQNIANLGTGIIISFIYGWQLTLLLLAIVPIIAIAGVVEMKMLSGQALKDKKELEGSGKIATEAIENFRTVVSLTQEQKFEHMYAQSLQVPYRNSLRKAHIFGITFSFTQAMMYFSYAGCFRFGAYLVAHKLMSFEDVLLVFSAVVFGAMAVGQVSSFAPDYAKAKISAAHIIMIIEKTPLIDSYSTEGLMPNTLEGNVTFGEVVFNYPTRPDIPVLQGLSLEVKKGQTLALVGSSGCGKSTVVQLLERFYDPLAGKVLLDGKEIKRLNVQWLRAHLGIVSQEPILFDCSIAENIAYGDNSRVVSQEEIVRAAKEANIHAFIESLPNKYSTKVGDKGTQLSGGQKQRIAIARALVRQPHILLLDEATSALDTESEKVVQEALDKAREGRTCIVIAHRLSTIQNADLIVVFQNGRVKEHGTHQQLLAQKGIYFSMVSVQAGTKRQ

## O=C(Cn1ccnc1[N+](=O)[O-])NCc1ccccc1 [Bz, N-Benzyl-2-nitro-1H-imidazole-1-acetamide]
  EC50: 277 µM
